{"source": "ChEMBL document CHEMBL3596108", "about": "(Bioorg Med Chem, 2015)", "key": {"[1]": {"assay": "Tmax in nude mouse at 30 mg/kg, ip administered as single dose", "type": "ADME, organism-based", "details": "in vivo"}, "[2]": {"assay": "Half life in nude mouse at 30 mg/kg, ip administered as single dose", "type": "ADME, organism-based", "details": "in vivo"}, "[3]": {"assay": "AUC (0 to t) in nude mouse at 30 mg/kg, ip administered as single dose", "type": "ADME, organism-based", "details": "in vivo"}, "[4]": {"assay": "Passive permeability of the compound by PAMPA method", "type": "physicochemical", "details": "read-out: permeability"}, "[5]": {"assay": "Cmax in nude mouse at 30 mg/kg, ip administered as single dose", "type": "ADME, organism-based", "parameters": "dose 30 mg/kg, route intraperitoneal", "details": "in vivo"}}}
{"compound": "Cl.NC1CCc2c(Br)ccc(-c3ccccc3)c2CC1=O", "note": "(stereo not given)", "values": [{"measurement": "Tmax", "setting": "[1]", "result": 30, "unit": "min"}, {"measurement": "half-life", "setting": "[2]", "result": 35, "unit": "min"}, {"measurement": "AUC(0-t)", "setting": "[3]", "result": 190, "unit": "ng·h/mL"}, {"measurement": "Papp", "setting": "[4]", "result": 3.03, "unit": "×10⁻⁶ cm/s"}, {"measurement": "Cmax", "setting": "[5]", "result": 115, "unit": "ng/mL"}]}
